# Results: PubChem BioAssay (NCI)
#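 Test compounds were applied to cells in 96-well plates for 48 hours at 5 doses. TGI denotes the concentration required for complete inhibition of growth.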
# Key:
# Experiment in all cases: DTP human tumour cell line panel, 48 h
# KM12 colon = test system: KM12 colon
# SF-295 CNS = test system: SF-295 CNS
# HCT-15 colon = test system: HCT-15 colon
# MDA-MB-231 breast = test system: MDA-MB-231 breast
# HS 578T breast = test system: HS 578T breast
# SF-539 CNS = test system: SF-539 CNS
# SNB-19 CNS = test system: SNB-19 CNS
# NCI-H460 lung = test system: NCI-H460 lung
# HCC-2998 colon = test system: HCC-2998 colon
# T-47D breast = test system: T-47D breast
# SK-MEL-5 melanoma = test system: SK-MEL-5 melanoma
# HCT-116 colon = test system: HCT-116 colon
# EKVX NSCLC = test system: EKVX NSCLC
# K-562 leukemia = test system: K-562 leukemia
# HOP-62 NSCLC = test system: HOP-62 NSCLC
# MDA-MB-435 = test system: MDA-MB-435
# HL-60(TB) leukemia = test system: HL-60(TB) leukemia
# PC-3 prostate = test system: PC-3 prostate
# UACC-257 melanoma = test system: UACC-257 melanoma
# NCI-H522 lung = test system: NCI-H522 lung
# RPMI-8226 leukemia = test system: RPMI-8226 leukemia
# A549 NSCLC = test system: A549 NSCLC
# MCF7 breast = test system: MCF7 breast
# SN12C renal = test system: SN12C renal
# OVCAR-8 ovarian = test system: OVCAR-8 ovarian
# NCI/ADR-RES ovarian = test system: NCI/ADR-RES ovarian
# M14 melanoma = test system: M14 melanoma
# COLO 205 colon = test system: COLO 205 colon
# IGROV1 ovarian = test system: IGROV1 ovarian
# UO-31 renal = test system: UO-31 renal
# TK-10 renal = test system: TK-10 renal
# U251 CNS = test system: U251 CNS
# MOLT-4 leukemia = test system: MOLT-4 leukemia
# 786-0 renal = test system: 786-0 renal
# CCRF-CEM leukemia = test system: CCRF-CEM leukemia
# OVCAR-4 ovarian = test system: OVCAR-4 ovarian
# ACHN renal = test system: ACHN renal
# MDA-N = test system: MDA-N
# SK-MEL-28 melanoma = test system: SK-MEL-28 melanoma
# SF-268 CNS = test system: SF-268 CNS
# OVCAR-5 ovarian = test system: OVCAR-5 ovarian
# SK-OV-3 ovarian = test system: SK-OV-3 ovarian
# SNB-75 CNS = test system: SNB-75 CNS
# SW-620 colon = test system: SW-620 colon
# OVCAR-3 ovarian = test system: OVCAR-3 ovarian
# NCI-H23 lung = test system: NCI-H23 lung
# DU-145 prostate = test system: DU-145 prostate
# HOP-92 NSCLC = test system: HOP-92 NSCLC
# A498 renal = test system: A498 renal
# LOX IMVI melanoma = test system: LOX IMVI melanoma
# SR leukemia = test system: SR leukemia
# MALME-3M melanoma = test system: MALME-3M melanoma
# HT29 colon = test system: HT29 colon
# CAKI-1 renal = test system: CAKI-1 renal
smiles,measurement,setting,value
COc1cc(C2c3cc4c(cc3[C@@H](Nc3ccc(F)cc3)C3CO[C@@H](O)[C@H]23)OCO4)cc(OC)c1O (stereo partly drawn),TGI,KM12 colon,> 25 µM
same,TGI,SF-295 CNS,10.3 µM
same,TGI,HCT-15 colon,> 25 µM
same,TGI,MDA-MB-231 breast,> 25 µM
same,TGI,HS 578T breast,14.7 µM
same,TGI,SF-539 CNS,12.6 µM
same,TGI,SNB-19 CNS,> 25 µM
same,TGI,NCI-H460 lung,> 25 µM
same,TGI,HCC-2998 colon,> 25 µM
same,TGI,T-47D breast,> 25 µM
same,TGI,SK-MEL-5 melanoma,> 25 µM
same,TGI,HCT-116 colon,> 25 µM
same,TGI,EKVX NSCLC,> 25 µM
same,TGI,K-562 leukemia,> 25 µM
same,TGI,HOP-62 NSCLC,> 25 µM
same,TGI,MDA-MB-435,> 25 µM
same,TGI,HL-60(TB) leukemia,5.23 µM
same,TGI,PC-3 prostate,> 25 µM
same,TGI,UACC-257 melanoma,> 25 µM
same,TGI,NCI-H522 lung,15 µM
same,TGI,RPMI-8226 leukemia,> 25 µM
same,TGI,A549 NSCLC,> 25 µM
same,TGI,MCF7 breast,> 25 µM
same,TGI,SN12C renal,> 25 µM
same,TGI,OVCAR-8 ovarian,> 25 µM
same,TGI,NCI/ADR-RES ovarian,> 25 µM
same,TGI,M14 melanoma,> 25 µM
same,TGI,COLO 205 colon,> 25 µM
same,TGI,IGROV1 ovarian,> 25 µM
same,TGI,UO-31 renal,8.28 µM
same,TGI,TK-10 renal,> 25 µM
same,TGI,U251 CNS,8.47 µM
same,TGI,MOLT-4 leukemia,4.43 µM
same,TGI,786-0 renal,> 25 µM
same,TGI,CCRF-CEM leukemia,7.72 µM
same,TGI,OVCAR-4 ovarian,> 25 µM
same,TGI,ACHN renal,6.88 µM
same,TGI,MDA-N,> 25 µM
same,TGI,SK-MEL-28 melanoma,> 25 µM
same,TGI,SF-268 CNS,> 25 µM
same,TGI,OVCAR-5 ovarian,12.8 µM
same,TGI,SK-OV-3 ovarian,> 25 µM
same,TGI,SNB-75 CNS,> 25 µM
same,TGI,SW-620 colon,> 25 µM
Cc1oc2c(cc(O)c3ccccc32)c2cccc1-2,TGI,KM12 colon,> 100 µM
same,TGI,SF-295 CNS,> 100 µM
same,TGI,HCT-15 colon,> 100 µM
same,TGI,MDA-MB-231 breast,34.8 µM
same,TGI,HS 578T breast,> 100 µM
same,TGI,SF-539 CNS,> 100 µM
same,TGI,SNB-19 CNS,> 100 µM
same,TGI,NCI-H460 lung,> 100 µM
same,TGI,HCC-2998 colon,> 100 µM
same,TGI,T-47D breast,> 100 µM
same,TGI,SK-MEL-5 melanoma,> 100 µM
same,TGI,HCT-116 colon,> 100 µM
same,TGI,OVCAR-3 ovarian,> 100 µM
same,TGI,EKVX NSCLC,> 100 µM
same,TGI,NCI-H23 lung,> 100 µM
same,TGI,HOP-62 NSCLC,> 100 µM
same,TGI,MDA-MB-435,> 100 µM
same,TGI,HL-60(TB) leukemia,> 100 µM
same,TGI,DU-145 prostate,> 100 µM
same,TGI,HOP-92 NSCLC,> 100 µM
same,TGI,A498 renal,> 100 µM
same,TGI,PC-3 prostate,> 100 µM
same,TGI,UACC-257 melanoma,> 100 µM
same,TGI,RPMI-8226 leukemia,> 100 µM
same,TGI,A549 NSCLC,> 100 µM
same,TGI,MCF7 breast,> 100 µM
same,TGI,SN12C renal,> 100 µM
same,TGI,OVCAR-8 ovarian,> 100 µM
same,TGI,LOX IMVI melanoma,> 100 µM
same,TGI,NCI/ADR-RES ovarian,> 100 µM
same,TGI,M14 melanoma,76.7 µM
same,TGI,SR leukemia,> 100 µM
same,TGI,COLO 205 colon,> 100 µM
same,TGI,MALME-3M melanoma,> 100 µM
same,TGI,TK-10 renal,> 100 µM
same,TGI,U251 CNS,> 100 µM
same,TGI,MOLT-4 leukemia,> 100 µM
same,TGI,786-0 renal,> 100 µM
same,TGI,HT29 colon,> 100 µM
same,TGI,CCRF-CEM leukemia,> 100 µM
same,TGI,ACHN renal,> 100 µM
same,TGI,MDA-N,> 100 µM
same,TGI,SK-MEL-28 melanoma,> 100 µM
same,TGI,SF-268 CNS,> 100 µM
same,TGI,OVCAR-5 ovarian,> 100 µM
same,TGI,SK-OV-3 ovarian,> 100 µM
same,TGI,SNB-75 CNS,> 100 µM
same,TGI,CAKI-1 renal,> 100 µM
same,TGI,SW-620 colon,> 100 µM
